According to patent publication US20190330226A1, “POSITIVE ALLOSTERIC MODULATORS OF THE MUSCARINIC ACETYLCHOLINE RECEPTOR M1” (Vanderbilt University, priority 2018, published 2019):

Target: T1, human mAChR M1 (Homo sapiens, UniProt P11229)
T1 construct: host or cells: CHO-K1 (ATCC), stably transfected using Lipofectamine 2000
T1 sequence (P11229 1-460): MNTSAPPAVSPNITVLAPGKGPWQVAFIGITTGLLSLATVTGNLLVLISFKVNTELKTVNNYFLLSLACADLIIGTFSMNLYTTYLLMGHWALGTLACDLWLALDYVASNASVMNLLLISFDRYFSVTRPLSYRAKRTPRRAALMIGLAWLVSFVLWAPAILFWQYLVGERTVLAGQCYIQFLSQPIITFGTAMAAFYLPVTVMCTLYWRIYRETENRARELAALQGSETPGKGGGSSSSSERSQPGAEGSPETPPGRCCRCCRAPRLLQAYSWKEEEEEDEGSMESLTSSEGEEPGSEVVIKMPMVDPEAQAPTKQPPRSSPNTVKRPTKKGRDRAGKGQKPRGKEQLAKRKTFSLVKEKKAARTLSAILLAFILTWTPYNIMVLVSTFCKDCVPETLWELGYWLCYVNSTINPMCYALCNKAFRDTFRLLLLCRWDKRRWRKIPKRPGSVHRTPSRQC
Assay: mAChR M1 cell-based functional assay (calcium mobilization, Fluo-4, FDSS)
Conditions: CHO-K1 cells stably expressing hM1, calcium flux; for Emax: PAM mode with EC20 acetylcholine; for EC50: concentration-dependent increase in the EC20 acetylcholine response
Excerpt: Chinese hamster ovary (CHO-K1) cells stably expressing rat (r)M1 were purchased from the American Type Culture Collection and cultured according to their indicated protocol. CHO cells stably expressing human (h)M2, hM3, and hM5 were described previously (Levey, et al., 1991); hM1 and hM4 cDNAs were purchased from Missouri S&T cDNA Resource; rM4 cDNA was provided by T. I. Bonner (National Institutes of Health, Bethesda, Md.). rM2 and rM3 were cloned from a rat brain cDNA library and sequence verified. hM1, rM2, rM3, hM4, and rM4 cDNAs were used to stably transfect CHO-K1 cells purchased from the American Type Culture Collection using Lipofectamine 2000. To make stable rM2, hM2, rM3, hM4, and rM4 cell lines for use in calcium mobilization assays, these cells also were stably transfected with a chimeric G-protein (Gqi5) (provided by B. R. Conklin, University of California, San Francisco) using Lipofectamine 2000. rM1, hM1, rM3, hM3, rM5, and hM5 cells were grown in Ham's F-12 medium containing 10% heat-inactivated fetal bovine serum (FBS), 20 mM HEPES, and 50 µg/mL G418 sulfate. rM2-Gqi5, hM2-Gqi5, and hM4-Gqi5 cells were grown in the same medium also containing 500 μg/mL Hygromycin B. Stable rM4-Gqi5 cells were grown in DMEM containing 10% heat-inactivated FBS, 20 mM HEPES, 400 μg/mL G418 sulfate, and 500 μg/mL Hygromycin B.
For high throughput measurement of agonist-evoked increases in intracellular calcium, CHO-K1 cells stably expressing muscarinic receptors were plated in growth medium lacking G418 and hygromycin at 15,000 cells/20 μL/well in Greiner 384-well black-walled, tissue culture (TC)-treated, clear-bottom plates (VWR). Cells were incubated overnight at 37° C. and 5% CO2. The next day, cells were washed using an ELX 405 (BioTek) with four washes ([…]) of assay buffer then aspirated to 20 μL. Next, 20 μL of 16 μM Fluo-4/acetoxymethyl ester (Invitrogen, Carlsbad, Calif.) prepared as a 2.3 mM stock in DMSO and mixed in a 1:1 ratio with 10% (w/v) Pluronic F-127 and diluted in assay buffer was added to the wells and the cell plates were incubated for 50 min at 37° C. and 5% CO2. Dye was removed by washing with the ELX 405 (four 80 μL washes of assay buffer) then aspirated to 20 μL. Compound master plates were formatted in an 11 point CRC format (1:3 dilutions) in 100% DMSO with a starting concentration of 10 mM using the BRAVO liquid handler (Agilent). Test compound CRCs were then transferred to daughter plates (240 nL) using the Echo acoustic plate reformatter (Labcyte, Sunnyvale, Calif.) and then diluted into assay buffer (40 μL) to a 2× stock using a Thermo Fisher Combi (Thermo Fisher Scientific, Waltham, Mass.).
Calcium flux was measured using the Functional Drug Screening System (FDSS) 6000 (Hamamatsu Corporation, Tokyo, Japan) as an increase in the fluorescent static ratio. Compounds were applied to cells (20 μL, 2×) using the automated system of the FDSS 6000 at 4 s into the 300 s protocol and the data were collected at 1 Hz. At 144 s into the 300s protocol, 10 μL of an EC20 concentration of the muscarinic receptor agonist acetylcholine was added (5×), followed by the addition of 12 μL an EC80 concentration of acetylcholine at the 230 s time point (5×). Agonist activity was analyzed as a concentration-dependent increase in calcium mobilization upon compound addition. Positive allosteric modulator activity was analyzed as a concentration-dependent increase in the EC20 acetylcholine response. Antagonist activity was analyzed as a concentration-dependent decrease in the EC80 acetylcholine response. Concentration-response curves were generated using a four-parameter logistical equation in XLfit curve fitting software (IDBS, Bridgewater, N.J.) for Excel (Microsoft, Redmond, Wash.) or Prism (GraphPad Software, Inc., San Diego, Calif.).
Activity (EC50 and Emax) was determined in the mAChR M1 cell-based functional assay as described above and the data are shown in Table 2. […]

| Emax | EC50 | Compound |
| --- | --- | --- |
| 84% | 1590 nM | Cn1cc2c(-c3cc(F)c(CN4Cc5sccc5C4=O)c(F)c3)cccc2n1 [Compound 1, 5-(2,6-difluoro-4-(2-methyl-2H-indazol-4-yl)benzyl)-5,6-dihydro-4H-thieno[2,3-c]pyrrol-4-one] |
| 70% | 1260 nM | Cn1cc2c(-c3cc(F)c(CN4Cc5ccsc5C4=O)c(F)c3)cccc2n1 [Compound 2, 5-(2,6-difluoro-4-(2-methyl-2H-indazol-4-yl)benzyl)-4,5-dihydro-6H-thieno[2,3-c]pyrrol-6-one] |
| 78% | – | Cn1cc2c(-c3cc(F)c(CN4Cc5nc[nH]c5C4=O)c(F)c3)cccc2n1 [Compound 3, 5-(2,6-difluoro-4-(2-methyl-2H-indazol-4-yl)benzyl)-5,6-dihydropyrrolo[3,4-d]imidazol-4(3H)-one] |
| 36% | 1880 nM | Cn1cc2c(-c3cc(F)c(CN4Cc5ccn(C)c5C4=O)c(F)c3)cccc2n1 [Compound 4, 5-(2,6-difluoro-4-(2-methyl-2H-indazol-4-yl)benzyl)-1-methyl-4,5-dihydropyrrolo[3,4-b]pyrrol-6(1H)-one] |
| 73% | – | Cn1cc2c(-c3cc(F)c(CN4Cc5ncsc5C4=O)c(F)c3)cccc2n1 [Compound 5, 5-(2,6-difluoro-4-(2-methyl-2H-indazol-4-yl)benzyl)-4,5-dihydro-6H-pyrrolo[3,4-d]thiazol-6-one] |
| 63% | – | Cn1cc2c(-c3cc(F)c(CN4Cc5cnn(Cc6ccccn6)c5C4=O)c(F)c3)cccc2n1 [Compound 6, 5-(2,6-Difluoro-4-(2-methyl-2H-indazol-4-yl)benzyl)-1-(pyridin-2-ylmethyl)-4,5-dihydropyrrolo[3,4-c]pyrazol-6(1H)-one] |
| 45% | 4370 nM | COc1ccc(Cn2ncc3c2C(=O)N(Cc2c(F)cc(-c4cccc5nn(C)cc45)cc2F)C3)cc1 [Compound 6.1, 5-(2,6-difluoro-4-(2-methyl-2H-indazol-4-yl)benzyl)-1-(4-methoxybenzyl)-4,5-dihydropyrrolo[3,4-c]pyrazol-6(1H)-one] |
| 87% | – | Cn1cc2c(-c3cc(F)c(CN4Cc5cn[nH]c5C4=O)c(F)c3)cccc2n1 [Compound 6.2, 5-(2,6-difluoro-4-(2-methyl-2H-indazol-4-yl)benzyl)-4,5-dihydropyrrolo[3,4-c]pyrazol-6(1H)-one] |
| 46% | – | Cn1cc2c(-c3cc(F)c(CN4Cc5cn(Cc6ccccn6)nc5C4=O)c(F)c3)cccc2n1 [Compound 7, 5-(2,6-difluoro-4-(2-methyl-2H-indazol-4-yl)benzyl)-2-(pyridin-2-ylmethyl)-4,5-dihydropyrrolo[3,4-c]pyrazol-6(2H)-one] |
| 33% | 3850 nM | Cn1cc2cc(-c3cc(F)c(CN4Cc5ccn(CC6CCCO6)c5C4=O)c(F)c3)ccc2n1 (stereo not shown) [Compound 8, 5-(2,6-difluoro-4-(2-methyl-2H-indazol-5-yl)benzyl)-1-((tetrahydrofuran-2-yl)methyl)-4,5-dihydropyrrolo[3,4-b]pyrrol-6(1H)-one] |
| 36% | 1880 nM | Cn1cc2c(-c3cc(F)c(CN4Cc5cc[nH]c5C4=O)c(F)c3)cccc2n1 [Compound 9, 5-(2,6-difluoro-4-(2-methyl-2H-indazol-4-yl)benzyl)-4,5-dihydropyrrolo[3,4-b]pyrrol-6(1H)-one] |
| 59% | – | CCCn1ccc2c1C(=O)N(Cc1c(F)cc(-c3cccc4nn(C)cc34)cc1F)C2 [Compound 10, 5-(2,6-difluoro-4-(2-methyl-2H-indazol-4-yl)benzyl)-1-propyl-4,5-dihydropyrrolo[3,4-b]pyrrol-6(1H)-one] |
| 57% | 2920 nM | Cn1cc2c(-c3cc(F)c(CN4Cc5ccn(CCN6CCCC6)c5C4=O)c(F)c3)cccc2n1 [Compound 11, 5-(2,6-difluoro-4-(2-methyl-2H-indazol-4-yl)benzyl)-1-(2-(pyrrolidin-1-yl)ethyl)-4,5-dihydropyrrolo[3,4-b]pyrrol-6(1H)-one] |
| 47% | – | Cn1cc(-c2ccc(CN3Cc4ncsc4C3=O)c(F)c2)cn1 [Compound 12, 5-(2-fluoro-4-(1-methyl-1H-pyrazol-4-yl)benzyl)-4,5-dihydro-6H-pyrrolo[3,4-d]thiazol-6-one] |
| 51% | 1850 nM | Cn1cc2cc(-c3ccc(CN4Cc5ncsc5C4=O)c(F)c3)ccc2n1 [Compound 13, 5-(2-fluoro-4-(2-methyl-2H-indazol-5-yl)benzyl)-4,5-dihydro-6H-pyrrolo[3,4-d]thiazol-6-one] |
| 40% | – | Cn1cc(-c2cc(F)c(CN3Cc4ncsc4C3=O)c(F)c2)cn1 [Compound 14, 5-(2,6-difluoro-4-(1-methyl-1H-pyrazol-4-yl)benzyl)-4,5-dihydro-6H-pyrrolo[3,4-d]thiazol-6-one] |
| 55% | – | O=C1c2scnc2CN1Cc1c(F)cc(-c2ccc3nccn3c2)cc1F [Compound 15, 5-(2,6-difluoro-4-(imidazo[1,2-a]pyridin-6-yl)benzyl)-4,5-dihydro-6H-pyrrolo[3,4-d]thiazol-6-one] |
| 93% | 920 nM | Cn1cc2c(-c3cc(F)c(CN4Cc5cnn(CC6CCCO6)c5C4=O)c(F)c3)cccc2n1 (stereo not shown) [Compound 16, 5-(2,6-difluoro-4-(2-methyl-2H-indazol-4-yl)benzyl)-1-((tetrahydrofuran-2-yl)methyl)-4,5-dihydropyrrolo[3,4-c]pyrazol-6(1H)-one] |
| 58% | 3410 nM | Cn1cc2c(-c3cc(F)c(CN4Cc5cn(CC6CCCO6)nc5C4=O)c(F)c3)cccc2n1 (stereo not shown) [Compound 17, 5-(2,6-difluoro-4-(2-methyl-2H-indazol-4-yl)benzyl)-2-((tetrahydrofuran-2-yl)methyl)-4,5-dihydropyrrolo[3,4-c]pyrazol-6(2H)-one] |
| 87% | 3100 nM | COCCn1ncc2c1C(=O)N(Cc1c(F)cc(-c3cccc4nn(C)cc34)cc1F)C2 [Compound 18, 5-(2,6-difluoro-4-(2-methyl-2H-indazol-4-yl)benzyl)-1-(2-methoxyethyl)-4,5-dihydropyrrolo[3,4-c]pyrazol-6(1H)-one] |
| 45% | – | COCCn1cc2c(n1)C(=O)N(Cc1c(F)cc(-c3cccc4nn(C)cc34)cc1F)C2 [Compound 19, 5-(2,6-difluoro-4-(2-methyl-2H-indazol-4-yl)benzyl)-2-(2-methoxyethyl)-4,5-dihydropyrrolo[3,4-c]pyrazol-6(2H)-one] |
| 91% | 730 nM | Cn1cc2c(-c3cc(F)c(CN4Cc5cnn(CCN6CCCC6)c5C4=O)c(F)c3)cccc2n1 [Compound 20, 5-(2,6-difluoro-4-(2-methyl-2H-indazol-4-yl)benzyl)-1-(2-(pyrrolidin-1-yl)ethyl)-4,5-dihydropyrrolo[3,4-c]pyrazol-6(1H)-one] |
